Values quoted from earlier work, collected in patent publication US20070243232A1, “Method to treat and prevent asthma attacks using throat lozenges and orally-retained liquids containing magnesium” (priority 2006, published 2007).

Details: injections in the 200 mg range

Compound: O=S(=O)([O-])[O-].[Mg+2] [magnesium sulfate]
- efficacy in treating asthma and effecting a rescue: modestly effective
